Results reported in ChEMBL document CHEMBL5247617, “4-Arylthiosemicarbazide derivatives - Pharmacokinetics, toxicity and anti-Toxoplasma gondii activity in vivo” (Eur J Med Chem, 2022).
Activity calls are given as the source filed them. No cut-off for these calls is given here.

Experiments:
[1] = Oral bioavailability in BALB/c mouse serum at 50 mg/kg measured upto 60 mins by LC-MS/MS analysis; type: ADME, organism-based
[2] = Tmax in BALB/c mouse brain at 25 mg/kg, po measured upto 24 hrs by LC-MS/MS analysis; type: ADME, organism-based
[3] = Oral bioavailability in BALB/c mouse brain at 25 mg/kg measured upto 24 hrs by LC-MS/MS analysis; type: ADME, organism-based
[4] = Cmax in BALB/c mouse brain at 50 mg/kg, po measured upto 24 hrs by LC-MS/MS analysis; type: ADME, organism-based; design: time < 24 hrs, dose 50 mg/kg, route po; settings: in vivo
[5] = Toxicity in BALB/c mouse assessed as disseminated necrosis of hepatocytes at 50 mg/kg, po administered for 5 days and measured after 14 days by hematoxylin-eosin staining based microscopic analysis; type: organism-based; settings: in vivo, 120 h, time 5 day
[6] = Toxicity in BALB/c mouse assessed as microvesicular steatosis of hepatocytes at 50 mg/kg, po administered for 5 days and measured after 1 day by hematoxylin-eosin staining based microscopic analysis; type: organism-based; settings: in vivo, 120 h, time 5 day
Toxoplasma gondii [7] = experiment: Antiparasitic activity against Toxoplasma gondii RH infected in human Hs27 cells assessed as parasitic growth inhibition incubated for 24 hrs followed by [5,6-3H] uracil addition and measured after 72 hrs by liquid scintillation counter analysis; type: functional, organism-based
[8] = Cmax in BALB/c mouse serum at 50 mg/kg, po measured upto 60 mins by LC-MS/MS analysis; type: ADME, organism-based; design: time < 60 min, dose 50 mg/kg, route po; settings: in vivo, 1 h
Toxoplasma gondii [9] = experiment: Antiparasitic activity against Toxoplasma gondii RH infected in BALB/c mouse assessed as reduction in number of bradyzoite gene copies in muscles at 25 mg/kg, po administered every 24 hrs for 5 days starting from 24 hrs post infection by real-time qPCR analysis; type: functional; settings: time 5 day
[10] = Toxicity in BALB/c mouse assessed as changes in creatinine level at 50 mg/kg, po administered for 5 days and measured on day 1 and day 14 by colorimetric assay; type: organism-based; settings: in vivo, 120 h, time 5 day
Toxoplasma gondii [11] = experiment: Antiparasitic activity against Toxoplasma gondii DX infected in C3H/HeOuJ mouse assessed as prolongation of survival at 25 to 50 mg/kg, po administered for 5 days starting from 24 hrs post infection by Kaplan-Meier method; type: functional, organism-based; settings: dose 25-50 mg/kg, time 5.0 day
[12] = AUC in BALB/c mouse serum at 25 mg/kg, po measured upto 60 mins by LC-MS/MS analysis; type: ADME, organism-based; design: dose 25 mg/kg, time < 60 min, route po; settings: in vivo, 1 h
Toxoplasma gondii [13] = experiment: Antiparasitic activity against Toxoplasma gondii RH infected in BALB/c mouse assessed as reduction of bradyzoite gene copies in heart at 25 mg/kg, po administered every 24 hrs for 5 days starting from 24 hrs post infection by real-time qPCR analysis; type: functional, organism-based; settings: time 5.0 day
[14] = Tmax in BALB/c mouse brain at 50 mg/kg, po measured upto 24 hrs by LC-MS/MS analysis; type: ADME, organism-based
[15] = Oral bioavailability in BALB/c mouse serum at 25 mg/kg measured upto 60 mins by LC-MS/MS analysis; type: ADME, organism-based
[16] = Tmax in BALB/c mouse serum at 50 mg/kg, po measured upto 60 mins by LC-MS/MS analysis; type: ADME, organism-based; settings: in vivo, 1 h
[17] = Toxicity in BALB/c mouse assessed as disseminated necrosis of hepatocytes at 50 mg/kg, po administered for 5 days and measured after 1 day by hematoxylin-eosin staining based microscopic analysis; type: organism-based; settings: in vivo, 120 h, time 5 day
[18] = Elimination half-life in BALB/c mouse brain at 50 mg/kg, po measured upto 24 hrs by LC-MS/MS analysis; type: ADME, organism-based; settings: read-out: beta t1/2 (converted)
[19] = Toxicity in BALB/c mouse assessed as changes in serum AST level at 50 mg/kg, po administered for 5 days and measured on day 1 and day 14 by ELISA method; type: organism-based; settings: in vivo, 120 h, time 5 day
[20] = Cmax in BALB/c mouse brain at 25 mg/kg, po measured upto 24 hrs by LC-MS/MS analysis; type: ADME, organism-based; design: time < 24 hrs, dose 25 mg/kg, route po; settings: in vivo
Toxoplasma gondii [21] = experiment: Antiparasitic activity against Toxoplasma gondii RH infected in BALB/c mouse assessed as prolongation of animal survival at 25 to 50 mg/kg, po administered for 5 days starting from 24 hrs post infection by Kaplan-Meier method; type: functional, organism-based; settings: dose 25-50 mg/kg, time 5.0 day
[22] = AUC in BALB/c mouse brain at 50 mg/kg, po measured upto 24 hrs by LC-MS/MS analysis; type: ADME, organism-based; design: dose 50 mg/kg, time < 24 hrs, route po
Toxoplasma gondii [23] = experiment: Antiparasitic activity against Toxoplasma gondii RH infected in BALB/c mouse assessed as decrease in IFNgamma level in serum at 25 to 50 mg/kg, po administered for 5 days starting from 24 hrs post infection by ELISA method; type: functional, organism-based; settings: dose 25-50 mg/kg, time 5.0 day
Toxoplasma gondii [24] = experiment: Antiparasitic activity against Toxoplasma gondii RH infected in BALB/c mouse assessed as survival rate at 50 mg/kg, po administered every 12 hrs for 5 days starting from 24 hrs post infection by Kaplan-Meier method; type: functional; settings: 120 h, time 5 day
[25] = Toxicity in BALB/c mouse assessed as changes in liver weight at 50 mg/kg, po administered for 5 days and measured after 14 days; type: organism-based; settings: in vivo, 120 h, time 5 day
[26] = Toxicity in BALB/c mouse assessed as changes in body weight at 25 to 50 mg/kg, po administered for 5 days and measured on day 1 and day 14; type: organism-based; settings: in vivo, 120 h, dose 25-50 mg/kg, time 5 day
[27] = Oral bioavailability in BALB/c mouse brain at 50 mg/kg measured upto 24 hrs by LC-MS/MS analysis; type: ADME, organism-based
[28] = Toxicity in BALB/c mouse assessed as changes in body weight at 1000 mg/kg, po administered once and observed for 10 days; type: organism-based; settings: in vivo, 240 h, time 10 day
L929 = experiment: Cytotoxicity against mouse L929 cells assessed as reduction in cell viability incubated for 24 hrs by MTT assay; type: toxicity, cell-based; settings: l929, 24 h
[29] = AUC in BALB/c mouse serum at 50 mg/kg, po measured upto 60 mins by LC-MS/MS analysis; type: ADME, organism-based; design: time < 60 min, dose 50 mg/kg, route po; settings: in vivo, 1 h
[30] = Toxicity in BALB/c mouse assessed as changes in size of hepatocyte nuclei at 50 mg/kg, po administered for 5 days and measured after 14 days by hematoxylin-eosin staining based microscopic analysis; type: organism-based; settings: hepatocytes, 120 h, time 5 day
[31] = Elimination half-life in BALB/c mouse serum at 25 mg/kg, po measured upto 60 mins by LC-MS/MS analysis; type: ADME, organism-based; settings: in vivo, 1 h
[32] = Toxicity in BALB/c mouse assessed as increase in serum ALT level at 50 mg/kg, po administered for 5 days and measured after 14 days by ELISA method; type: organism-based; settings: in vivo, 120 h, time 5 day
[33] = Tmax in BALB/c mouse serum at 25 mg/kg, po measured upto 60 mins by LC-MS/MS analysis; type: ADME, organism-based; settings: in vivo, 1 h
HS27 = experiment: Cytotoxicity against human HS27 cells assessed as reduction in cell viability; type: toxicity, cell-based
[34] = Toxicity in BALB/c mouse assessed as changes in liver weight at 50 mg/kg, po administered for 5 days and measured after 1 day; type: organism-based; settings: in vivo, 120 h, time 5 day
[35] = Elimination half-life in BALB/c mouse serum at 50 mg/kg, po measured upto 60 mins by LC-MS/MS analysis; type: ADME, organism-based; settings: in vivo, 1 h
[36] = Cmax in BALB/c mouse serum at 25 mg/kg, po measured upto 60 mins by LC-MS/MS analysis; type: ADME, organism-based; design: dose 25 mg/kg, time < 60 min, route po; settings: in vivo, 1 h
[37] = Elimination half-life in BALB/c mouse brain at 25 mg/kg, po measured upto 24 hrs by LC-MS/MS analysis; type: ADME, organism-based; settings: read-out: beta t1/2 (converted)
Toxoplasma gondii [38] = experiment: Antiparasitic activity against Toxoplasma gondii RH infected in BALB/c mouse assessed as decrease in number of bradyzoite gene copies in brain at 50 mg/kg, po administered every 24 hrs for 5 days starting from 24 hrs post infection by real-time qPCR analysis; type: functional, organism-based; settings: time 5.0 day
[39] = AUC in BALB/c mouse brain at 25 mg/kg, po measured upto 24 hrs by LC-MS/MS analysis; type: ADME, organism-based; design: time < 24 hrs, dose 25 mg/kg, route po
Toxoplasma gondii [40] = experiment: Antiparasitic activity against Toxoplasma gondii RH infected in BALB/c mouse assessed as reduction of daughter tachyzoites in blood at 25 to 50 mg/kg, po administered for 5 days starting from 24 hrs post infection by real-time qPCR analysis; type: functional, organism-based; settings: dose 25-50 mg/kg, time 5.0 day
Toxoplasma gondii [41] = experiment: Antiparasitic activity against Toxoplasma gondii RH infected in BALB/c mouse assessed as prolongation of animal survival at 20 mg/kg, po administered every 24 hrs for 5 days starting from 24 hrs post infection by Kaplan-Meier method; type: functional, organism-based; settings: time 5.0 day
Toxoplasma gondii [42] = experiment: Antiparasitic activity against Toxoplasma gondii RH infected in BALB/c mouse assessed as reduction of bradyzoite gene copies in brain at 20 mg/kg, po administered every 24 hrs for 5 days starting from 24 hrs post infection by real-time qPCR analysis; type: functional, organism-based; settings: time 5.0 day
Toxoplasma gondii [43] = experiment: Antiparasitic activity against Toxoplasma gondii RH infected in BALB/c mouse assessed as decrease in IFNgamma level in serum at 20 mg/kg, po administered every 24 hrs for 5 days starting from 24 hrs post infection by ELISA method; type: functional, organism-based; settings: time 5.0 day
[44] = Toxicity in BALB/c mouse assessed as increase in creatinine level at 20 mg/kg, po administered for 5 days and measured after 1 day by colorimetric assay; type: organism-based; settings: in vivo, 120 h, time 5 day
[45] = Toxicity in BALB/c mouse assessed as increase in serum ALT level at 20 mg/kg, po administered for 5 days and measured on day 1 and day 14 by ELISA method; type: organism-based; settings: in vivo, 120 h, time 5 day
[46] = Toxicity in BALB/c mouse assessed as increase in liver weight at 20 mg/kg, po administered for 5 days and measured after 1 day; type: organism-based; settings: in vivo, 120 h, time 5 day
[47] = Toxicity in BALB/c mouse assessed as changes in liver weight at 20 mg/kg, po administered for 5 days and measured after 14 days; type: organism-based; settings: in vivo, 120 h, time 5 day
[48] = Toxicity in BALB/c mouse assessed as increase in serum AST level at 20 mg/kg, po administered for 5 days and measured on day 1 and day 14 by ELISA method; type: organism-based; settings: in vivo, 120 h, time 5 day
Toxoplasma gondii [49] = experiment: Antiparasitic activity against Toxoplasma gondii RH infected in BALB/c mouse assessed as reduction in number of bradyzoite gene copies in muscles at 20 mg/kg, po administered every 24 hrs for 5 days starting from 24 hrs post infection by real-time qPCR analysis; type: functional; settings: time 5 day
Toxoplasma gondii [50] = experiment: Antiparasitic activity against Toxoplasma gondii DX infected in C3H/HeOuJ mouse assessed as prolongation of survival at 20 mg/kg, po administered every 24 hrs for 5 days starting from 24 hrs post infection by Kaplan-Meier method; type: functional, organism-based; settings: time 5.0 day
[51] = Toxicity in BALB/c mouse assessed as hydropic degeneration at 20 mg/kg, po administered for 5 days and measured after 1 day by hematoxylin-eosin staining based microscopic analysis; type: organism-based; settings: in vivo, 120 h, time 5 day

SMILES: Cc1nc[nH]c1C(=O)NNC(=S)Nc1ccc([N+](=O)[O-])cc1
- bioavailability [1]: 4.06%
- Tmax [2]: 120 min
- bioavailability [3]: 0.46%
- Cmax [4]: 32.27 ng/mg
- Activity [5]: Toxic
- Activity [6]: Toxic
- IC50 (Toxoplasma gondii [7]): 67.5 µM
- Cmax [8]: 11080 ng/mL
- Activity (Toxoplasma gondii [9]): 20
- Activity [10]: Non-Toxic
- Activity (Toxoplasma gondii [11]): Active
- AUC [12]: 53700 ng·h/mL
- Activity (Toxoplasma gondii [13]): Active
- Tmax [14]: 30 min
- bioavailability [15]: 10.7%
- Tmax [16]: 15 min
- Activity [17]: Toxic
- half-life [18]: 54.6 min
- Activity [19]: Non-Toxic
- Cmax [20]: 7.74 ng/mg
- Activity (Toxoplasma gondii [21]): Active
- AUC at 24 h [22]: 47.5 ng·h/mL
- Activity (Toxoplasma gondii [23]): Active
- survival at 50 mg/kg (Toxoplasma gondii [24]): 20%
- Activity [25]: Non-Toxic
- Activity [26]: Non-Toxic
- bioavailability [27]: 1.17%
- Activity [28]: Non-Toxic
- CC30 (L929): 682.98 µM
- AUC [29]: 40640 ng·h/mL
- Activity [30]: Toxic
- beta t1/2 [31]: 52.8 min
- Activity [32]: Non-Toxic
- Tmax [33]: 30 min
- CC30 (HS27): 697.67 µM
- Activity [34]: Non-Toxic
- beta t1/2 [35]: 24 min
- Cmax [36]: 6400 ng/mL
- half-life [37]: 175 min
- Activity (Toxoplasma gondii [38]): Active
- AUC at 24 h [39]: 24.9 ng·h/mL
- Activity (Toxoplasma gondii [40]): Active

SMILES: COc1cc(Cc2cnc(N)nc2N)cc(OC)c1OC [TRIMETHOPRIM]
- Activity (Toxoplasma gondii [41]): Active
- Activity (Toxoplasma gondii [42]): Active
- Activity (Toxoplasma gondii [43]): inactive
- Activity [44]: Toxic
- Activity [45]: Non-Toxic
- Activity [46]: Toxic
- Activity [47]: Non-Toxic
- Activity [48]: Non-Toxic
- Activity (Toxoplasma gondii [49]): 36
- Activity (Toxoplasma gondii [50]): Active
- Activity [51]: Toxic
